Experiment [1] deals with T1, human GPR52 (Homo sapiens, UniProt Q9Y2T5).
Experiment [2] deals with T1, human GPR52. Put plainly: GPR52 Agonist Functional cAMP Assay.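 For all read-outs here: HEKf cells transduced with GPR52 BacMam for 24 h, 2000 per well, exposed to compounds 30 min at 37° C with 0.5 mM IBMX, cAMP read by HTRF.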 Particulars: for EC50: pEC50 average, HEKf cells infected with human GPR52 BacMam virus, cAMP HTRF, 30 min at 37° C.; for Emax: maximal response normalised to DMSO (0%) and maximal compound 7m (J. Med. Chem., 2014, 57, 5226) response (100%). Background: In TR-FRET formats the signal depends on donor and acceptor labels being close together.

Experiment [3] deals with D-amphetamine-induced hyperlocomotor response. Put plainly: Amphetamine-induced locomotor activity in rat. Format: in vivo, male Sprague-Dawley rats. Conditions: 10 mg/kg PO, 60 min before D-amphetamine SC; activity over two hours. On the procedure:
The rat amphetamine-induced locomotor hyperactivity test is used to model the enhanced mesolimbic dopaminergic activity thought to contribute to psychosis in humans. […] Male Sprague-Dawley rats (200-250 g) were housed in groups with a 12 h light/dark cycle (lights on at 07.00), at an ambient temperature of 21±2° C. and with standard pelleted diet and water ad libitum. Testing was carried out in the light phase. On the day of the experiment, animals were habituated to the locomotor cages for a 60-minute period.
Locomotor activity was assessed for a two hour period after D-amphetamine treatment. Data are back-transformed means, adjusted for differences between treatment groups in activity during the 30 minutes prior to treatment with test compound or vehicle (n=10-12). Analysis was by general linear model with treatment, cohort and rack as factors. SEMs were calculated from the residuals of the statistical model.
Significant differences vs D-amphetamine are represented as *p<0.05, **p<0.01, ***p<0.001.

Experiment [4] concerns subchronic PCP induced cognitive deficit. Put plainly: Subchronic PCP-induced reversal learning deficit in rat. The experiment is classed as in vivo, female Lister Hooded rats. Particulars: 6 mg/kg IP, 60 min prior to testing. The method, then: Testing was carried out in the light phase. Rats underwent operant training firstly to press the left/right lever for a food reward in the presence or absence of a visual cue, and then to respond to the opposite contingency. The reversal learning task was introduced as follows. On the day before each reversal task session, a full 30-minute operant training session was conducted in order to ensure stable responding. In the initial task, animals were first exposed to a five-minute period during which the contingency (cue position relative to active lever) was the same as for the operant training session. This was followed by a 2-minute time-out period, which was signalled by the house-light being turned off. In the subsequent 5-minute period (reversal task), the contingency was reversed. Responses made on the correct and incorrect levers were recorded. Animals undertook several of these reversal learning task sessions before the beginning of the drug studies in order to ensure that they attained a stable level of performance in both phases of the task. […] At this stage, training ceased and rats were treated with PCP (2 mg/kg, IP or vehicle 0.9% saline, IP) for 7 days followed by at least 7-days washout period.
In the initial phase, the reward contingency was the same as the previous day and in the reversal phase the reward contingency was reversed.
Data are presented as mean total number of lever presses (+SEM) and percent correct response (+SEM). […] Statistical significance was assumed when P<0.05 and was determined as follows: one-way ANOVA (IBM SPSS Statistics 22) was performed in order to detect main effect of drug treatment in the initial and reversal tasks. Where a significant effect was detected, a post-hoc LSD t-test was performed in order to compare treatment groups versus the appropriate control in the reversal phase of the test.
Data are shown as mean±s.e.m. % correct responding (n=8-10) and were analysed by ANOVA and post-hoc Student's t-test.
Data are shown as the mean total number of lever presses, correct responses are shown as clear bars and incorrect responses are shown as shaded bars (n=8-10).

T1 sequence (Q9Y2T5 whole entry): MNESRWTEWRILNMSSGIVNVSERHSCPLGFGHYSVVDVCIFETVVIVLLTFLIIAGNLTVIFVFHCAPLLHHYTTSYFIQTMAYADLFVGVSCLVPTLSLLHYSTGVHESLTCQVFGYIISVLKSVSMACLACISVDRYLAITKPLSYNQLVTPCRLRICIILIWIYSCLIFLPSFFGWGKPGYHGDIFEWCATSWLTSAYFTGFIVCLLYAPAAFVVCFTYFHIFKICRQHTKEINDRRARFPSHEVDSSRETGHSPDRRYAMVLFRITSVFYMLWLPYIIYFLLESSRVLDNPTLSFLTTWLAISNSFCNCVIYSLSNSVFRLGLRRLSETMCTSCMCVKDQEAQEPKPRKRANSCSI

Turning to `Cc1nn(-c2ccnc(C(O)c3cc(F)cc(C(F)(F)F)c3)c2)c2c1C(=O)NCC2` (single isomer, unassigned) [117 Isomer 2, 1-(2-((3-fluoro-5-(trifluoromethyl)phenyl)(hydroxy)methyl)pyridin-4-yl)-3-methyl-1,5,6,7-tetrahydro-4H-pyrazolo[4,3-c]pyridin-4-one], the “Emax (%)” value on human GPR52 [1] stood at 103%. Further, the response on human GPR52 [2] was half-maximal at 25.1 nM (EC50).
Regarding `Cc1nn(-c2cc(C(O)c3cc(F)cc(C(F)(F)F)c3)ccn2)c2c1C(=O)NCC2` (single isomer, unassigned) [118 Isomer 2, 1-(4-((3-fluoro-5-(trifluoromethyl)phenyl)(hydroxy)methyl)pyridin-2-yl)-3-methyl-1,5,6,7-tetrahydro-4H-pyrazolo[4,3-c]pyridin-4-one], the “Emax (%)” value at human GPR52 [1] was 101%. Further, a half-maximal response on human GPR52 [2] (EC50) required 7.94 nM.
Consider `O=C1NCCc2c1cnn2-c1ccnc(C(O)c2cc(F)cc(C(F)(F)F)c2)c1` (single isomer, unassigned) [Example 36 Isomer 1, 1-(2-((3-fluoro-5-(trifluoromethyl)phenyl)(hydroxy)methyl)pyridin-4-yl)-1,5,6,7-tetrahydro-4H-pyrazolo[4,3-c]pyridin-4-one], for which the “Emax (%)” value at human GPR52 [1] came out at 72%. Further, the EC50 (usually the concentration giving half of the maximal effect) at human GPR52 [2] was 1580 nM.
Consider `O=C1NCCc2c1cnn2-c1ccnc(C(O)c2cc(F)cc(C(F)(F)F)c2)c1` (single isomer, unassigned) [Example 36 Isomer 2, 1-(2-((3-fluoro-5-(trifluoromethyl)phenyl)(hydroxy)methyl)pyridin-4-yl)-1,5,6,7-tetrahydro-4H-pyrazolo[4,3-c]pyridin-4-one], for which the “Emax (%)” value at human GPR52 [1] came to 94%. In addition, on human GPR52 [2], the half-maximal effective concentration (EC50) is 251 nM.
The like results for `CC1Cc2c(cnn2-c2ccnc(Cc3cc(F)cc(C(F)(F)F)c3)c2)C(=O)N1` (single isomer, unassigned) [Example 40 Isomer 2, 1-(2-(3-fluoro-5-(trifluoromethyl)benzyl)pyridin-4-yl)-6-methyl-1,5,6,7-tetrahydro-4H-pyrazolo[4,3-c]pyridin-4-one] were, in that order, 83% and 126 nM.
On to `COCCN1CCc2c(cnn2-c2cc(Cc3cc(F)cc(C(F)(F)F)c3)ccn2)C1=O` [Example 106, 1-(4-(3-fluoro-5-(trifluoromethyl)benzyl)pyridin-2-yl)-5-(2-methoxyethyl)-1,5,6,7-tetrahydro-4H-pyrazolo[4,3-c]pyridin-4-one], for which, on human GPR52 [2], the Emax (in general, the size of the effect at its maximum, as opposed to the concentration needed) came out at 86% and the EC50 was 31.6 nM.
Consider `O=C1c2cnn(-c3cc(Cc4cc(F)cc(C(F)(F)F)c4)ccn3)c2CCN1CCO` [Example 107, 1-(4-(3-fluoro-5-(trifluoromethyl)benzyl)pyridin-2-yl)-5-(2-hydroxyethyl)-1,5,6,7-tetrahydro-4H-pyrazolo[4,3-c]pyridin-4-one], for which, on human GPR52 [2], the Emax is 99% and the EC50 was 12.6 nM.
On human GPR52 [2], `Cc1cnc(Cc2cc(F)cc(C(F)(F)F)c2)cc1-n1ncc2c1CCNC2=O` [Example 108, 1-(2-(3-fluoro-5-(trifluoromethyl)benzyl)-5-methylpyridin-4-yl)-1,5,6,7-tetrahydro-4H-pyrazolo[4,3-c]pyridin-4-one] gave an Emax of 80% and an EC50 of 79.4 nM.
For `O=C1NCCc2c1cnn2-c1ccnc(Cc2cnc(OC(F)F)c(F)c2)c1` [Example 110, 1-(2-((6-(difluoromethoxy)-5-fluoropyridin-3-yl)methyl)pyridin-4-yl)-1,5,6,7-tetrahydro-4H-pyrazolo[4,3-c]pyridin-4-one], at human GPR52 [2], the Emax came out at 74% and a half-maximal effect (EC50) was put at 501 nM.
On human GPR52 [2], `Cc1nn(-c2ccnc(Cc3cnc(OC(F)F)c(F)c3)c2)c2c1C(=O)NCC2` [Example 111, 1-(2-((6-(difluoromethoxy)-5-fluoropyridin-3-yl)methyl)pyridin-4-yl)-3-methyl-1,5,6,7-tetrahydro-4H-pyrazolo[4,3-c]pyridin-4-one] showed an Emax of 87% and an EC50 of 63.1 nM.
For the compound `O=C1NCCOc2nn(-c3ccnc(Cc4cc(F)cc(C(F)(F)F)c4)c3)cc21` [Example 112, 2-(2-(3-fluoro-5-(trifluoromethyl)benzyl)pyridin-4-yl)-6,7-dihydro-2H-pyrazolo[4,3-f][1,4]oxazepin-4(5H)-one], at human GPR52 [2], the Emax was found to be 77% and the EC50 was 398 nM.
In the same order, the values of `O=C1NCCc2c1c(CO)nn2-c1cc(Cc2cc(F)cc(C(F)(F)F)c2)ccn1` [Example 113, 1-(4-(3-fluoro-5-(trifluoromethyl)benzyl)pyridin-2-yl)-3-(hydroxymethyl)-1,5,6,7-tetrahydro-4H-pyrazolo[4,3-c]pyridin-4-one] are 95% and 15.8 nM.
For `O=C1NCCc2c1c(CO)nn2-c1ccnc(Cc2cc(F)cc(C(F)(F)F)c2)c1` [Example 114, 1-(2-(3-fluoro-5-(trifluoromethyl)benzyl)pyridin-4-yl)-3-(hydroxymethyl)-1,5,6,7-tetrahydro-4H-pyrazolo[4,3-c]pyridin-4-one], at human GPR52 [2], the Emax is 93% and the EC50 is 39.8 nM.
With `N#Cc1nn(-c2ccnc(Cc3cc(F)cc(C(F)(F)F)c3)c2)c2c1C(=O)NCC2` [Example 115, 1-(2-(3-fluoro-5-(trifluoromethyl)benzyl)pyridin-4-yl)-4-oxo-4,5,6,7-tetrahydro-1H-pyrazolo[4,3-c]pyridine-3-carbonitrile], at human GPR52 [2], the Emax was determined as 91% and the EC50 was 25.1 nM.
The like results for `O=C1NCCc2c1c(C(F)(F)F)nn2-c1ccnc(Cc2cc(F)cc(C(F)(F)F)c2)c1` [Example 116, 1-(2-(3-fluoro-5-(trifluoromethyl)benzyl)pyridin-4-yl)-3-(trifluoromethyl)-1,5,6,7-tetrahydro-4H-pyrazolo[4,3-c]pyridin-4-one] were, in that order, 95% and 5.01 nM.
For the compound `Cc1cc(-n2nc(Cc3cc(F)cc(C(F)(F)F)c3)nc2C)ccc1C(N)=O` [FTBMT, reference compound], in experiment [3], the “reduction of the D-amphetamine-induced hyperlocomotor response” value is on record as “showed a trend towards a reduced D-amphetamine-induced hyperlocomotor response but statistical significance was not reached”.
On to `Oc1cc2c(cc1O)C(c1ccccc1)CNCC2` (stereo not drawn) [SKF-38393, reference compound], for which the “effect on total number of lever presses” value in experiment [4] (scPCP treated rats) is given as “no significant effects”. Further, the “reversal of subchronic PCP reversal learning deficit (percent correct responding, reversal phase)” value in experiment [4] (vs vehicle-treated subchronic PCP group) is reported as “significantly (P<0.05−P<0.001) reversed the deficit”.

Values taken from patent US20230002374A1, “GPR52 MODULATOR COMPOUNDS” (Heptares Therapeutics Limited, priority 2019, published 2023).
